Data as given in PubChem BioAssay AID2060905 (Molecular Pharmacology Branch, DTP, NCI, 2025).
Each block holds one molecule with its values, some of them ahead of it.

Test system: 282377-053-R-J1-PDC complex spheroid viability
Experiment: Anticancer human tumor 282377-053-R-J1-PDC patient-derived colon adenocarcinoma cell line growth inhibition [RAS]
Conditions: for IC50: curve of first compound; for viability, T/C: stronger effect = lower value
In short: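 Agents were tested in combination matrices in half-log decrements from a top concentration at or near clinical Cmax (10 microM if undetermined). Targets were multi-cell spheroids of tumour lines plus HUVEC and MSC stromal cells.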
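Further: spheroids exposed to agents for seven days before readout.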
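Wherever viability, T/C is given: luminescence viability as percent of DMSO vehicle control wells.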

IC50 (second compound 0.000949 µM): > 1000 nM | IC50 (second compound 0.003 µM): > 1000 nM | IC50 (second compound 0.00949 µM): > 1000 nM | IC50 (second compound 0.03 µM): > 1000 nM | IC50 (second compound 0.0949 µM): > 1000 nM | IC50 (second compound 0.3 µM): > 1000 nM
SMILES: C=CC(=O)N1CCN(c2nc(OCC3CCCN3C)nc3c(F)c(-c4nc(N)cc(C)c4C(F)(F)F)c(Cl)cc23)C(C)C1 (centres undefined) + CCn1c(-c2cccnc2C(C)OC)c2c3cc(ccc31)N1CCOC(CC(NC(=O)C(C(C)C)N(C)C(=O)C3(F)CCN(C(=O)C#CC(C)(C)N(C)C)CC3)C(=O)N3CCCC(N3)C(=O)OCC(C)(C)C2)C1
viability, T/C (second compound 0.000949 µM, first compound 0.00316 µM): 90.6% | viability, T/C (second compound 0.000949 µM, first compound 0.01 µM): 110% | viability, T/C (second compound 0.000949 µM, first compound 0.0316 µM): 109% | viability, T/C (second compound 0.000949 µM, first compound 0.1 µM): 92.1% | viability, T/C (second compound 0.000949 µM, first compound 0.316 µM): 98% | viability, T/C (second compound 0.000949 µM, first compound 1 µM): 87.1% | viability, T/C (second compound 0.003 µM, first compound 0.00316 µM): 105% | viability, T/C (second compound 0.003 µM, first compound 0.01 µM): 131% | viability, T/C (second compound 0.003 µM, first compound 0.0316 µM): 86.9% | viability, T/C (second compound 0.003 µM, first compound 0.1 µM): 101% | viability, T/C (second compound 0.003 µM, first compound 0.316 µM): 81.2% | viability, T/C (second compound 0.003 µM, first compound 1 µM): 85.3% | viability, T/C (second compound 0.00949 µM, first compound 0.00316 µM): 96.2% | viability, T/C (second compound 0.00949 µM, first compound 0.01 µM): 92.7% | viability, T/C (second compound 0.00949 µM, first compound 0.0316 µM): 83.6% | viability, T/C (second compound 0.00949 µM, first compound 0.1 µM): 88.7% | viability, T/C (second compound 0.00949 µM, first compound 0.316 µM): 81.5% | viability, T/C (second compound 0.00949 µM, first compound 1 µM): 82.8% | viability, T/C (second compound 0.03 µM, first compound 0.00316 µM): 92.9% | viability, T/C (second compound 0.03 µM, first compound 0.01 µM): 97.5% | viability, T/C (second compound 0.03 µM, first compound 0.0316 µM): 86.2% | viability, T/C (second compound 0.03 µM, first compound 0.1 µM): 112% | viability, T/C (second compound 0.03 µM, first compound 0.316 µM): 89.9% | viability, T/C (second compound 0.03 µM, first compound 1 µM): 93.8% | viability, T/C (second compound 0.0949 µM, first compound 0.00316 µM): 90.5% | viability, T/C (second compound 0.0949 µM, first compound 0.01 µM): 104% | viability, T/C (second compound 0.0949 µM, first compound 0.0316 µM): 115% | viability, T/C (second compound 0.0949 µM, first compound 0.1 µM): 109% | viability, T/C (second compound 0.0949 µM, first compound 0.316 µM): 109% | viability, T/C (second compound 0.0949 µM, first compound 1 µM): 96.3% | viability, T/C (second compound 0.3 µM, first compound 0.00316 µM): 90.1% | viability, T/C (second compound 0.3 µM, first compound 0.01 µM): 92.1% | viability, T/C (second compound 0.3 µM, first compound 0.0316 µM): 97.5% | viability, T/C (second compound 0.3 µM, first compound 0.1 µM): 93.3% | viability, T/C (second compound 0.3 µM, first compound 0.316 µM): 113% | viability, T/C (second compound 0.3 µM, first compound 1 µM): 98.2%

IC50 (second compound 0.000949 µM): > 300 nM | IC50 (second compound 0.003 µM): > 300 nM | IC50 (second compound 0.00949 µM): > 300 nM | IC50 (second compound 0.03 µM): > 300 nM | IC50 (second compound 0.0949 µM): > 300 nM | IC50 (second compound 0.3 µM): > 300 nM
SMILES: CC1(C)CCC(Nc2ncc(C(F)(F)F)c(-c3c[nH]c4c(P(C)(C)=O)c(C#N)ccc34)n2)CN1 (centres undefined) + CCn1c(-c2cccnc2C(C)OC)c2c3cc(ccc31)N1CCOC(CC(NC(=O)C(C(C)C)N(C)C(=O)C3(F)CCN(C(=O)C#CC(C)(C)N(C)C)CC3)C(=O)N3CCCC(N3)C(=O)OCC(C)(C)C2)C1
viability, T/C (second compound 0.000949 µM, first compound 0.000949 µM): 83.9% | viability, T/C (second compound 0.000949 µM, first compound 0.003 µM): 124% | viability, T/C (second compound 0.000949 µM, first compound 0.00949 µM): 115% | viability, T/C (second compound 0.000949 µM, first compound 0.03 µM): 90% | viability, T/C (second compound 0.000949 µM, first compound 0.0949 µM): 104% | viability, T/C (second compound 0.000949 µM, first compound 0.3 µM): 75.9% | viability, T/C (second compound 0.003 µM, first compound 0.000949 µM): 94.1% | viability, T/C (second compound 0.003 µM, first compound 0.003 µM): 112% | viability, T/C (second compound 0.003 µM, first compound 0.00949 µM): 140% | viability, T/C (second compound 0.003 µM, first compound 0.03 µM): 88.6% | viability, T/C (second compound 0.003 µM, first compound 0.0949 µM): 89.5% | viability, T/C (second compound 0.003 µM, first compound 0.3 µM): 89.3% | viability, T/C (second compound 0.00949 µM, first compound 0.000949 µM): 102% | viability, T/C (second compound 0.00949 µM, first compound 0.003 µM): 105% | viability, T/C (second compound 0.00949 µM, first compound 0.00949 µM): 134% | viability, T/C (second compound 0.00949 µM, first compound 0.03 µM): 97% | viability, T/C (second compound 0.00949 µM, first compound 0.0949 µM): 80.8% | viability, T/C (second compound 0.00949 µM, first compound 0.3 µM): 92.9% | viability, T/C (second compound 0.03 µM, first compound 0.000949 µM): 89.3% | viability, T/C (second compound 0.03 µM, first compound 0.003 µM): 118% | viability, T/C (second compound 0.03 µM, first compound 0.00949 µM): 98.2% | viability, T/C (second compound 0.03 µM, first compound 0.03 µM): 96.3% | viability, T/C (second compound 0.03 µM, first compound 0.0949 µM): 91.2% | viability, T/C (second compound 0.03 µM, first compound 0.3 µM): 96.9% | viability, T/C (second compound 0.0949 µM, first compound 0.000949 µM): 84.5% | viability, T/C (second compound 0.0949 µM, first compound 0.003 µM): 135% | viability, T/C (second compound 0.0949 µM, first compound 0.00949 µM): 131% | viability, T/C (second compound 0.0949 µM, first compound 0.03 µM): 77% | viability, T/C (second compound 0.0949 µM, first compound 0.0949 µM): 75.1% | viability, T/C (second compound 0.0949 µM, first compound 0.3 µM): 67.9% | viability, T/C (second compound 0.3 µM, first compound 0.000949 µM): 92.6% | viability, T/C (second compound 0.3 µM, first compound 0.003 µM): 107% | viability, T/C (second compound 0.3 µM, first compound 0.00949 µM): 110% | viability, T/C (second compound 0.3 µM, first compound 0.03 µM): 84.5% | viability, T/C (second compound 0.3 µM, first compound 0.0949 µM): 56.9% | viability, T/C (second compound 0.3 µM, first compound 0.3 µM): 53.6%
